Data on 1 compound can be found in paper PMC10931833, “Simultaneous Purification of Human Interferon Alpha-2b and Serum Albumin Using Bioprivileged Fluorinated Ionic Liquid-Based Aqueous Biphasic Systems” (International Journal of Molecular Sciences, 2024).

Read-outs that look alike come from different tables or passages of the source.

This assay addresses T1, FITC-IFN-α2b (Homo sapiens, UniProt P01563).
T1 construct: single non-glycosylated polypeptide chain with a molecular weight of 19 kDa, comprising 165 amino acids; purchased Millipore Sigma-Aldrich SRP4595-100UG; host or cells: E. coli
Description: MST binding to FITC-IFN-α2b. How it is done:
Typically, in the labeling process, one amine per protein is labeled, statistically distributing the position of the dye. Consequently, the risk of the label impairing the binding is minimal, given the typical number of lysine residues in proteins. […] The MST assay was performed as detailed in Section 3. […] For IFN- α 2b a concentration of 2.7 μ M was also prepared to compare it with previous results on MST-binding between FILs and IFN- α 2b fluorescently labeled with a different tag. In each run of MST, a maximum concentration of a ligand is selected and consecutively diluted in sixteen capillaries. […] The experimental conditions of the MST assay only allow the study of the aggregation phenomenon individually for the first CAC. For the MST runs with the concentration of the first capillary above the second CAC, the determined K d values for the runs that yield binding are influenced by several aggregates, making it impossible to attribute the K d value to a specific CAC. However, K d comprises the influence of the distinct aggregates of the FIL on binding affinity with both proteins, allowing a qualitative analysis of the impact of the different aggregates on binding affinity.
Microscale thermophoresis (MST) measurements of the dye-labeled protein were used to conduct binding investigations. […] MST tests were conducted in a monolith NT.115 (blue/red) in accordance with the NanoTemper Technologies methodology. Medium MST power and 20% LED power (nano-blue) were set as the instrument’s default settings. For every MST measurement, a PBS buffer was used. The concentration of FITC-BSA was fixed at 0.4 μ M and FITC-IFN- α 2b was tested under two different concentrations (of 0.4 and 2.7 μ M). The ligand was used to create a set of 16 1:1 dilutions, with the starting ligand concentrations ranging from 10 to 400 mM. The typical parameters for MST traces were used for recording: […], 30 s MST power on, and 5 s MST power off. The data from three independently conducted pipetted experiments were examined using NanoTemper Technologies’ MO.Affinity Analysis software, version 2.3.

T1 sequence (P01563 24-188): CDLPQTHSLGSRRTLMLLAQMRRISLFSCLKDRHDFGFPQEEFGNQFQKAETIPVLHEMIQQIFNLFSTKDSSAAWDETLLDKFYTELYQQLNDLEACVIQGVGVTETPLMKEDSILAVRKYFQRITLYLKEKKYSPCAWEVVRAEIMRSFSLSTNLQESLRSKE

`CCn1cc[n+](C)c1.O=S(=O)([O-])C(F)(F)C(F)(F)C(F)(F)C(F)(F)F` [1-ethyl-3-methylimidazolium perfluorobutane sulfonate]: the Kd (in general, the concentration at which binding is half-saturated) is, setting by setting: (0.41 μM IFN-α2b, max. conc. first capillary below 1st CAC (monomer)) “no binding detected”; (0.41 μM IFN-α2b, max. conc. first capillary in 2nd CAC range, 25 °C, read-out: Kd) 0.71 ± 0.37 mM; (0.41 μM IFN-α2b, max. conc. first capillary in 4th CAC range, 25 °C, read-out: Kd) 6.28 ± 1.09 mM; (2.7 μM IFN-α2b, max. conc. first capillary in 1st CAC range, 25 °C, read-out: Kd) 9.1 ± 6.38 mM; (2.7 μM IFN-α2b, max. conc. first capillary in 3rd CAC range, 25 °C, read-out: Kd) 29.9 ± 6.27 mM.
